Assay results: patent publication US20200085058A1, “SELECTIVE HERBICIDES BASED ON SUBSTITUTED THIEN-3-YL-SULPHONYLAMINO(THIO)CARBONYLTRIAZOLIN(THI)ONES AND SAFENERS” (Bayer CropScience Aktiengesellschaft, priority 2001, published 2020)

What was measured:
Format in all cases: in vivo
[1] = test system: maize of the cultivar "LIXIS"; assay: Example A-3 post-emergence test/greenhouse, crop damage, Maize 3; conditions: 7 days after the application, Table A-3-3
Protocol: (§1) The active compound or safener components are in each case dissolved in a few ml (generally 2-3 ml) of solvent (generally acetone or N,N-dimethyl-formamide), and the solutions are combined and then—if appropriate after addition of an emulsifier—diluted with water to the desired concentration. In general, an aqueous spray liquor was prepared using 0.1% of the additive Renex-36.
(§2) The test plants are grown under controlled conditions (temperature, light, atmospheric humidity) in a greenhouse. The test plants are sprayed when they have reached a height of 5-15 cm. The concentration of the spray liquor is chosen such that the particular amounts of active compound desired are applied in 500 l of water/ha.
(§3) After spraying, the pots with the test plants are kept in a greenhouse chamber under controlled conditions (temperature, light, atmospheric humidity) until the test has ended. […]
(§4) The figures denote: • 0%=no damage (like untreated control) • 100%=total destruction/damage
(§5) The compound I-2 was used as 10 WP. In each case, Marlipal® was added in an amount of 500 ml/ha.
(§6) Evaluation was carried out as early as 7 days after the application. • Maize 1=maize of the cultivar “Prinz” • Maize 2=maize of the cultivar “Pioneer” • Maize 3=maize of the cultivar “LIXIS”

[2] = test system: maize of the cultivar "Prinz"; assay: Example A-3 post-emergence test/greenhouse, crop damage, Maize 1; conditions: 7 days after the application, Table A-3-1
Protocol: as §1, §2, §3, §4, §5, §6

[3] = test system: maize cv. "Pioneer"; assay: Example A post-emergence test/greenhouse, crop damage, 0.1% Renex-36; conditions: 10 g of a.i./ha; Table A1; about three weeks after application
Protocol: The active compound or safener components are in each case dissolved in a few ml (generally 2-3 ml) of solvent (generally acetone or N,N-dimethyl-formamide), and the solutions are combined and then—if appropriate after addition of an emulsifier—diluted with water to the desired concentration. […] The test plants are grown under controlled conditions (temperature, light, atmospheric humidity) in a greenhouse. […] The concentration of the spray liquor is chosen such that the particular amounts of active compound desired are applied in 500 l of water/ha. After spraying, the pots with the test plants are kept in a greenhouse chamber under controlled conditions (temperature, light, atmospheric humidity) until the test has ended. About three weeks after the application, the degree of damage to the crop plants is rated in % damage in comparison to the development of the untreated control. […] Active compounds, application rates, test plants and results are shown in the tables below, the terms being used in the tables being as defined below: • maize=maize cv. “Pioneer” • a.i.=active ingredient=active compound/safener

[4] = test system: maize of the cultivar "Pioneer"; assay: Example A-3 post-emergence test/greenhouse, crop damage, Maize 2; conditions: 7 days after the application, Table A-3-2
Protocol: as §1, §2, §3, §4, §5, §6

[5] = test system: winter wheat; assay: Example A-5 post-emergence test/greenhouse, crop damage
Protocol: as §1, §2
(§7) After spraying, the pots with the test plants are kept in a greenhouse chamber under controlled conditions (temperature, light, atmospheric humidity) until the test has ended. About three weeks after the application, the degree of damage to the crop plants is rated in % damage in comparison to the development of the untreated control.
as §4
(§8) Mefenpyr-diethyl was used as 100 EC and the compound of Ex. No. I-2 was used as 10 WP.

[6] = test system: winter barley; assay: Example A-2 post-emergence test/greenhouse, crop damage, 0.5% Renex-36
Protocol: as §1, §2, §7, §4
Here, an aqueous spray liquor comprising 0.5% of the additive Renex-36 was prepared.

[7] = test system: winter wheat; assay: Example A-4 post-emergence test/greenhouse, crop damage; conditions: safener alone 50 g of a.i./ha; Table A-4-1
Protocol: as §1, §2, §7, §4
(§9) Mefenpyr-diethyl was used as 100 EC.
(§10) The compounds of Ex. Nos. I-2 and I-13 were used as 10 WP.

[8] = test system: winter barley; assay: as above; conditions: safener alone 50 g of a.i./ha; Table A-4-4
Protocol: as §1, §2, §7, §4, §9, §10

[9] = test system: winter barley; assay: Example A-5 post-emergence test/greenhouse, crop damage
Protocol: as §1, §2, §7, §4, §8

With `COC(=O)c1csc(C)c1S(=O)(=O)NC(=O)n1nc(OC)n(C)c1=O` [I-2] the “Damage Maize 3 (in %)” value ([1]; 8 g of a.i./ha) was 20%, the “Damage Maize 3 (in %)” value ([1]; 15 g of a.i./ha) was 40% and the “Damage Maize 1 (in %)” value ([2]; 8 g of a.i./ha) was 10%. The “Damage Maize 1 (in %)” value ([2]; 15 g of a.i./ha) was 20%, the “Damage maize (in %)” value [3] was 35% and the “Damage maize 2 (in %)” value ([4]; 8 g of a.i./ha) was 10%. For the same compound, the “Damage maize 2 (in %)” value ([4]; 15 g of a.i./ha) was 20%.
For `CCOC(=O)c1csc(C)c1S(=O)(=O)NC(=O)n1nc(OC)n(C)c1=O` [I-13], the “Damage winter wheat (in %)” value ([5]; in vivo) was 50%.
`COC(=O)c1csc(C)c1S(=O)(=O)[N-]C(=O)n1nc(OC)n(C)c1=O.[Na+]` [I-2, sodium salt] was tested, and the “Damage winter barley (in %)” value ([6]; 2 g of a.i./ha, Table A-2-1) was 50% and the “Damage winter barley (in %)” value ([6]; 4 g of a.i./ha, Table A-2-1) was 60%.
`COCC(=O)Nc1ccc(S(=O)(=O)NC(=O)c2ccccc2OC)cc1` [Comp. No. IId-25] was tested, and the “Damage winter barley (in %)” value ([6]; safener alone 30 g of a.i./ha, Table A-2-2) was 0% and the “Damage winter barley (in %)” value ([6]; safener alone 100 g of a.i./ha, Table A-2-2) was 0%.
In the case of `CCOC(=O)C1=NN(c2ccc(Cl)cc2Cl)C(C)(C(=O)OCC)C1` (centres unmarked) [mefenpyr-diethyl, diethyl 1-(2,4-dichloro-phenyl)-4,5-dihydro-5-methyl-1H-pyrazole-3,5-dicarboxylate, reference compound], the “Damage winter wheat (in %)” value [7] is reported as 0%, the “Damage winter barley (in %)” value [8] is reported as 0% and the “Damage winter wheat (in %)” value ([5]; safener alone 50 g of a.i./ha, Table A-5-1) is reported as 0%. For the same compound, the “Damage winter wheat (in %)” value ([5]; safener alone 50 g of a.i./ha, Table A-5-2) was 0%, the “Damage winter wheat (in %)” value ([5]; safener alone 50 g of a.i./ha, Table A-5-3) was 0% and the “Damage winter wheat (in %)” value ([5]; safener alone 50 g of a.i./ha, Table A-5-4) was 0%. The “Damage winter wheat (in %)” value ([5]; safener alone 50 g of a.i./ha, Table A-5-5) was 0% and the “Damage winter barley (in %)” value ([9]; safener alone 50 g of a.i./ha, Table A-5-11) was 0%.
For `CCOn1c(CC)nn(C(=O)NS(=O)(=O)c2c(C(=O)OC)csc2C)c1=O` [I-17], the “Damage winter wheat (in %)” value ([5]; 8 g of a.i./ha, Table A-5-7) was 40%, the “Damage winter wheat (in %)” value ([5]; 15 g of a.i./ha, Table A-5-7) was 50% and the “Damage winter wheat (in %)” value ([5]; 30 g of a.i./ha, Table A-5-7) was 70%. For the same compound, the “Damage winter barley (in %)” value ([9]; 8 g of a.i./ha, Table A-5-13) was 70%, the “Damage winter barley (in %)” value ([9]; 15 g of a.i./ha, Table A-5-13) was 70% and the “Damage winter barley (in %)” value ([9]; 30 g of a.i./ha, Table A-5-13) was 80%.
